Measured values published in the NIST ThermoML archive (doi:10.1021/je901020a).
Numbers after ± are expanded uncertainties.

Tests used:
[1] = refractive index (Na D-line) (dimensionless); xn = mol fraction of the nth substance listed; conditions: 101 kPa, Liquid, Standard Abbe refractometry, x2 = 0
[2] = xn = mol fraction of the nth substance listed; conditions: 101 kPa, Liquid, x2 = 0; for speed of sound: Pulse-echo method

Compound Cc1cccc(C)c1 [1,3-dimethylbenzene] + C1CCCCCCC1 has a refractive index ([1]; 298.15 K) of 1.49466 ± 0.00066, a refractive index ([1]; 313.15 K) of 1.48653 ± 0.00066 and a speed of sound ([2]; 298.15 K) of 1321 ± 2 m/s. It also gave a mass density ([2]; 298.15 K) of 859.8 ± 0.5 kg/m3, a speed of sound ([2]; 313.15 K) of 1259 ± 2 m/s and a mass density ([2]; 313.15 K) of 846.9 ± 0.5 kg/m3.
In the case of Cc1ccc(C)cc1 [1,4-dimethylbenzene] + CC1CCCCC1, the refractive index ([1]; 298.15 K) is reported as 1.49312 ± 0.001, the refractive index ([1]; 313.15 K) is reported as 1.48444 ± 0.001 and the speed of sound ([2]; 298.15 K) is reported as 1310 ± 2 m/s. It also gave a mass density ([2]; 298.15 K) of 856.6 ± 0.5 kg/m3, a speed of sound ([2]; 313.15 K) of 1248 ± 2 m/s and a mass density ([2]; 313.15 K) of 843.5 ± 0.5 kg/m3.
